For the assay, the species on record is Homo sapiens. Nature of the assay: Binding affinity to human serum transferrin.

Molecules are shown by their SMILES.

For `COC1=C[C@@H]2[C@@H]3Cc4ccc(OC)c(O)c4[C@]2(CCN3C)CC1=O`, the Ka was 0.68 10^3/M.

Values taken from ChEMBL document CHEMBL1139133, “A spectroscopic and molecular modeling study of sinomenine binding to transferrin” (Bioorg Med Chem Lett, 2007).
